Where two headings read alike, the source gives them in different places.
What was measured:
[1] = system: non-small cell lung carcinoma cell strain PC-9 (EGFR delE746-A750 deletion mutation); assay: In-vitro tumor cell proliferation inhibition, MTT; assay type: cell-based, human; details: 72 hours
[2] = system: non-small cell lung carcinoma cell strain H292 (EGFR WT); assay: In-vitro tumor cell proliferation inhibition, MTT; assay type: cell-based, human
[3] = system: non-small cell lung carcinoma cell strain H1975 (EGFR L858R/T790M mutation); assay: In-vitro tumor cell proliferation inhibition, MTT; assay type: cell-based, human
[4] = system: non-small cell lung carcinoma cell strain HCC827; assay: In-vitro tumor cell proliferation inhibition, MTT; assay type: cell-based, human
How it was run: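 Cells grown in RPMI-1640 with 10% FBS, seeded overnight (HCC827 at 6×10^4 cells/ml), then exposed to graded compound concentrations for 72 h at 37 °C, 5% CO2, with 1% DMSO solvent control. MTT absorbance at 570 nm; inhibition relative to control; triplicate wells, ≥3 repeats.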

PDGFRα = PDGFRα (Homo sapiens (Human), UniProt P16234); assay: Kinase inhibitory activity, isotopic labeling (γ-33P-ATP); assay type: biochemical; details: compound at 10 μM
PDGFRα, sequence (P16234 24-1089): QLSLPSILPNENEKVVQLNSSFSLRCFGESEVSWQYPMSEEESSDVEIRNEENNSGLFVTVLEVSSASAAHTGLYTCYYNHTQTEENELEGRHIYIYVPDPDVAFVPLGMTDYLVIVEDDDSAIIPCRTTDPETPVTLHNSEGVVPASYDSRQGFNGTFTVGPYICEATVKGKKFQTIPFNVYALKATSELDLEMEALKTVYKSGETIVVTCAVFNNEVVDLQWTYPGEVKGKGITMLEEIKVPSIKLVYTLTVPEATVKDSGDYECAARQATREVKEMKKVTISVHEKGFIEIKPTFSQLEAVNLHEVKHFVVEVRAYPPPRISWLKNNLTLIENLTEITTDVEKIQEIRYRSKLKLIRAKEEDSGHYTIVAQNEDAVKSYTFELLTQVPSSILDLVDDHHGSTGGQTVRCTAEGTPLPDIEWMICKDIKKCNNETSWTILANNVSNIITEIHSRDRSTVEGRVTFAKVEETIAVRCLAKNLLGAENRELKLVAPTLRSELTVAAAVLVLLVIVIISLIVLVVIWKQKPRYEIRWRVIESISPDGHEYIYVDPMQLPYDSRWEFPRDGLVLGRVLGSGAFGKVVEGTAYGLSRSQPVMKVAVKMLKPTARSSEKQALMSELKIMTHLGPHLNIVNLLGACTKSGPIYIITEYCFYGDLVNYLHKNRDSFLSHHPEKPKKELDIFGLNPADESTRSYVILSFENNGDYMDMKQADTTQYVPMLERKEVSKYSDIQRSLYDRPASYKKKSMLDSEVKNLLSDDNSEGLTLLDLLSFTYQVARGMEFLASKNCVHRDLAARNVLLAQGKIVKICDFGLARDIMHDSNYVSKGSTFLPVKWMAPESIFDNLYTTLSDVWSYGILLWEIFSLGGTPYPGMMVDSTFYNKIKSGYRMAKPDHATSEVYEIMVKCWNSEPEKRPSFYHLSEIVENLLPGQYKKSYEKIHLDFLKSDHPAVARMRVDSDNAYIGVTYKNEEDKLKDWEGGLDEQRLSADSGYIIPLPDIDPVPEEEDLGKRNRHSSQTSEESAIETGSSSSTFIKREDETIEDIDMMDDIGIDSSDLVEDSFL

VEGFR2 = VEGFR2 (Homo sapiens (Human), UniProt P35968); assay: as above; assay type: biochemical
How it was run: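 Radiometric γ-33P-ATP assay: kinase (5-10 mU) with its substrate in 8 mM MOPS pH 7.0, 0.2 mM EDTA, 10 mM MnCl2, 10 mM magnesium acetate and test compound. Phosphorylation counted by scintillation after filter-membrane capture; IC50 from inhibition across compound concentrations, staurosporine as reference.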

BTK = BTK (Homo sapiens (Human), UniProt Q06187); assay: as above; assay type: biochemical; details: compound at 10 μM
BTK, sequence (Q06187 whole entry): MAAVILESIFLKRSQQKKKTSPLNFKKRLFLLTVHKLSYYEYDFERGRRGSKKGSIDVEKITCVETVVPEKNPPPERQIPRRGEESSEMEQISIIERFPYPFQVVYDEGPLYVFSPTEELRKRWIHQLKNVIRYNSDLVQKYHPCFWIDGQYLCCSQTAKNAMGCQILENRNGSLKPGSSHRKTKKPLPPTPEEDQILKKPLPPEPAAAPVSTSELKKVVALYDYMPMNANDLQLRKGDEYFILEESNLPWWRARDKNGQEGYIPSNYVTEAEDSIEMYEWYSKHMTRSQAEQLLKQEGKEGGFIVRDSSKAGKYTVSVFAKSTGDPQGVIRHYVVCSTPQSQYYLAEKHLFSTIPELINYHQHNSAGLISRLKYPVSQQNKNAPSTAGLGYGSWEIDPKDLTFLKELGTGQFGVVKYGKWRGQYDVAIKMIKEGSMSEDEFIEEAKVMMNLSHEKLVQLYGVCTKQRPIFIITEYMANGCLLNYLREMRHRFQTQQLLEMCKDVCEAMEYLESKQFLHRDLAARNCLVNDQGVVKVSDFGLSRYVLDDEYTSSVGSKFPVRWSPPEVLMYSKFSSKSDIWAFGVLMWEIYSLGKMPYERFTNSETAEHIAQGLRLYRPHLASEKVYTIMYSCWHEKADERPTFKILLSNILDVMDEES

c-SRC = c-SRC (Homo sapiens (Human), UniProt P12931); assay: as above; assay type: biochemical; details: compound at 10 μM
c-SRC, sequence (P12931 whole entry, looked up): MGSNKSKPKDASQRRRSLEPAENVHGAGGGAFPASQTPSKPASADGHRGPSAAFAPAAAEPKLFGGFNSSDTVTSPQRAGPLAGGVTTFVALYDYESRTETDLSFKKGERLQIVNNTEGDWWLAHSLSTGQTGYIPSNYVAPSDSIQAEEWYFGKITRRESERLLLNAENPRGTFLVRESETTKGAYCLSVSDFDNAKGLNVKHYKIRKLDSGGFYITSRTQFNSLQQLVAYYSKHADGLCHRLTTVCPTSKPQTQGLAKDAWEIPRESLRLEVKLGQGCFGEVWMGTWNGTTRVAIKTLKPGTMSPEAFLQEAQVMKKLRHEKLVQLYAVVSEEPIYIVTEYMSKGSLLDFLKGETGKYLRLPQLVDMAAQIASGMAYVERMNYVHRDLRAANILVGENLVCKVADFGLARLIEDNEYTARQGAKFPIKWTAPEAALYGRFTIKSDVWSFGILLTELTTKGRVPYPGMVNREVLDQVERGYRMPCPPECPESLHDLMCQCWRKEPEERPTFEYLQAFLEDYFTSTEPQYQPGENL

FLT3 = FLT3 (Homo sapiens (Human), UniProt P36888); assay: as above; assay type: biochemical; details: compound at 10 μM
FLT3, sequence (P36888 27-993): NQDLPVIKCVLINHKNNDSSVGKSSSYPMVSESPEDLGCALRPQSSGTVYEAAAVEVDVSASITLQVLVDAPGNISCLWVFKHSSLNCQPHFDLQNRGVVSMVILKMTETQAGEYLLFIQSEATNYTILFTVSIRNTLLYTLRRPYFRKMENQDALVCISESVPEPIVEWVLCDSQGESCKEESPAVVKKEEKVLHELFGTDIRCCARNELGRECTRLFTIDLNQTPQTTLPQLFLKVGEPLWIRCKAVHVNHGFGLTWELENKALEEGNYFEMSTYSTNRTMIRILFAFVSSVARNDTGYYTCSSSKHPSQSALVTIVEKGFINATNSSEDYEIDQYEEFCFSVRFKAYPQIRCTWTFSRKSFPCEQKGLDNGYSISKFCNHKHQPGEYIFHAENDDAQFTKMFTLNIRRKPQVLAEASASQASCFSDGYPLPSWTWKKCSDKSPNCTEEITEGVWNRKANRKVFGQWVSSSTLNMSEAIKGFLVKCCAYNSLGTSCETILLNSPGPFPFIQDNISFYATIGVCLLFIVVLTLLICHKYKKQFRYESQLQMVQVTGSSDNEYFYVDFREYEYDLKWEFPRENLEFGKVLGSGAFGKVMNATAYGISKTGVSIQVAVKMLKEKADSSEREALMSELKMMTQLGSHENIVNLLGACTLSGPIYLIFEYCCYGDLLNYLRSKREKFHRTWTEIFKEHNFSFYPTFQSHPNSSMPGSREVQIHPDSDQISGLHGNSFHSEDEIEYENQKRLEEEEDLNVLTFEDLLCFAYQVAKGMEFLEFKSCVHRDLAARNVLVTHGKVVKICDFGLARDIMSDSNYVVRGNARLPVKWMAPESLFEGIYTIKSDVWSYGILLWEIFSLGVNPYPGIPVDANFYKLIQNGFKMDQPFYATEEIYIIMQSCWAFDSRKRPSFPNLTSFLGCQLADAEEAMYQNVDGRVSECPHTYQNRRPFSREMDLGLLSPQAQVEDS

ALK = ALK (Homo sapiens (Human), UniProt Q9UM73); assay: as above; assay type: biochemical; details: compound at 10 μM
ALK, sequence (Q9UM73 19-1620): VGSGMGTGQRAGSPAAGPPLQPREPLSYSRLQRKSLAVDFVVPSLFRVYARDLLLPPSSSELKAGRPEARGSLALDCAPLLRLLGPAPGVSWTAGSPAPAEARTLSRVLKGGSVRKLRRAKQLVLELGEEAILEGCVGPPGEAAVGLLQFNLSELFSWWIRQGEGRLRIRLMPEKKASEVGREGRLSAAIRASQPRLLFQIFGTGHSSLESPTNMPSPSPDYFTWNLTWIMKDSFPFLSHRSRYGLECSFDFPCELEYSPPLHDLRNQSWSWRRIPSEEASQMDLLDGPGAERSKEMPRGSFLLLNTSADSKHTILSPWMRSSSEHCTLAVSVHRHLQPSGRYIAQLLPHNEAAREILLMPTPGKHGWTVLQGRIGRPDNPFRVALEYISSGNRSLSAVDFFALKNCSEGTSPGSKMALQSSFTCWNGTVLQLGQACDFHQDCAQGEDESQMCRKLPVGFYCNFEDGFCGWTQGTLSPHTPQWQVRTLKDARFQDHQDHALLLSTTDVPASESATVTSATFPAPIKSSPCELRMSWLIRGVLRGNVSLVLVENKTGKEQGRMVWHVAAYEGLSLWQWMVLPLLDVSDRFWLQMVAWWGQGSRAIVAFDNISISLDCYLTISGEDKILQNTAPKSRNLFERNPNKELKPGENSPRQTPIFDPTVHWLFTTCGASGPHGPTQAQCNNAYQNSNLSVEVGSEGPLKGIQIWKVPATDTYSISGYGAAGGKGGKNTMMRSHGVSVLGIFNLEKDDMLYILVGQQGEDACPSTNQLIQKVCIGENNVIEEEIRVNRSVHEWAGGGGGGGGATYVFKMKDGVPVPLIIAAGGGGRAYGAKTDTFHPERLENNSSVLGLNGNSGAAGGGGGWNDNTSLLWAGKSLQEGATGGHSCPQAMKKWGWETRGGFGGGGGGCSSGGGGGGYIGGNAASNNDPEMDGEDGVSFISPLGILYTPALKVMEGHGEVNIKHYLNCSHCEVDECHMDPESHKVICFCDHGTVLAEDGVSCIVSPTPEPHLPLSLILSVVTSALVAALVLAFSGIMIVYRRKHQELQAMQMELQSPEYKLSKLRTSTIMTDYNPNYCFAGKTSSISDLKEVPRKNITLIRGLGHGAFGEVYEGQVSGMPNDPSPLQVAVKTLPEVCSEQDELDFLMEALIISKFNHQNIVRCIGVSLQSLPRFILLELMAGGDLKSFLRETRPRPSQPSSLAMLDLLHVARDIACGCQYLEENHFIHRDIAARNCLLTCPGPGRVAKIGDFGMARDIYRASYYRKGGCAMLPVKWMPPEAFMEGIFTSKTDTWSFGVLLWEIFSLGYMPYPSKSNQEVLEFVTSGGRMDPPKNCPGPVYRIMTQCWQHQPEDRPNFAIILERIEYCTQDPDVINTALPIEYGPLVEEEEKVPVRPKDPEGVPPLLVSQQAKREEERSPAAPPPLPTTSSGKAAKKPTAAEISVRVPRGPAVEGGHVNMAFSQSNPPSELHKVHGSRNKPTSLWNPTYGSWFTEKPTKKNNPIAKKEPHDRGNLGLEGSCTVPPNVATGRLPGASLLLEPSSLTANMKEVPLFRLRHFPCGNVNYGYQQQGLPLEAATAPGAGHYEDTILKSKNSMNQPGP

[5] = system: human acute myelogenous leukemia cell strain MV4-11; assay: In-vivo anti-tumor test, NOD-SCID mouse subcutaneously transplanted human leukemic solid tumor model; details: NOD-SCID mice, intragastric
Source text: The object of this assay was to determine the in-vivo anti-tumor effect of the present compound. In this assay, a NOD-SCID mouse subcutaneously transplanted human leukemic solid tumor model was used to test the present compound 8-29 for the in-vivo anti-tumor activity. The used cell strain was human acute myelogenous leukemia cell strain MV4-11.
NOD-SCID mice, aged 6-8 weeks, were inoculated with MV4-11 cell subcutaneously at the posterior segment of rib in a concentration of about 1×10^7 cells/0.1 ml per mouse. Upon the growth of the tumor up to 400-500 mm^3 (about 20 days), mice were grouped (n=6) and administrated intragastrically.
(§1) Observation Indices: the mice were measured every three days for the weight, and the length and width of tumor, and the tumor volume was calculated as length×width^2×0.52. […] 3. Results

[6] = system: human non-small cell lung carcinoma cell strain HCC827; assay: In-vivo anti-tumor test, nude mouse subcutaneously transplanted non-small cell lung carcinoma model; details: nude mice, intragastric
Source text: The object of this assay was to determine the in-vivo anti-tumor effect of the present compound. In this assay, a nude mouse subcutaneously transplanted non-small cell lung carcinoma model was used to test the present compound 8-10 for the in-vivo anti-tumor activity. The used cell strain was human non-small cell lung carcinoma cell strain HCC827.
BALB/C nude mice, aged 6-8 weeks, were inoculated with HCC827 cell subcutaneously at the posterior segment of rib in a concentration of about 5×10^6 cells/0.1 ml per mouse. Upon the growth of the tumor up to 200-300 mm^3 (about 20 days), mice were grouped (n=6) and administrated intragastrically.
as §1

Row | Compound | IC50 [1] [nM] | IC50 ([2]; 72 hours) [nM] | IC50 ([3]; 72 hours) [nM] | IC50 ([4]; 72 hours) [nM] | The kinase activity inhibitory rate (%) by the tested compounds at 10 μM PDGFRα (PDGFRα) [%] | IC50 (VEGFR2; ATP 90 μM (Km)) [nM] | The kinase activity inhibitory rate (%) by the tested compounds at 10 μM BTK (BTK) [%] | The kinase activity inhibitory rate (%) by the tested compounds at 10 μM c-SRC (c-SRC) [%] | The kinase activity inhibitory rate (%) by the tested compounds at 10 μM FLT3 (FLT3) [%] | The kinase activity inhibitory rate (%) by the tested compounds at 10 μM ALK (ALK) [%] | also measured
1 | CC(C)n1c(Nc2cccnc2)nc2cnc(Nc3ccc(N4CCN(C)CC4)cc3)nc21 [Compounds 8-29] | 10 | 180 | > 10000 | 7.2 | 42 | > 1000 | 60 | 97 | 99 | 15 | in-vivo tumor growth inhibition ([5]; MV4-11 xenograft, 5 mg/kg q.d. or higher (5, 10, 20 mg/kg q.d.)): substantial in-vivo growth inhibition; toxicity (untoward reactions: weight reduction, exanthema, diarrhea) ([5]; 5-20 mg/kg q.d.): low toxicity
2 | CC(C)n1c(Nc2ccccc2)nc2cnc(Nc3ccc(N4CCN(C)CC4)cc3)nc21 [Compounds 8-10] | 0.9 | 10.5 | 2000 | 0.1 | 87 | > 1000 | 32 | 23 | 87 | 45 | in-vivo tumor growth inhibition ([6]; HCC827 xenograft, 2 mg/kg q.d. or higher (2, 5, 10, 20 mg/kg q.d.)): substantial in-vivo growth inhibition; toxicity (untoward reactions: weight reduction, exanthema, diarrhea) ([6]; 2-20 mg/kg q.d.): low toxicity
3 | COc1ccc(Nc2nc3cnc(Nc4ccc(N5CCN(C)CC5)cc4)nc3n2C(C)C)cc1 [Compounds 8-18] | 34.9 | 531 | > 10000 | 117 | 60 | 21 | 56 | 93 | 75 | 13 | –
4 | CN1CCN(c2ccc(Nc3ncc4nc(Nc5ccccc5)n(C5CC5)c4n3)cc2)CC1 [Compounds 8-23] | 35.9 | 154 | > 10000 | 0.2 | 28 | > 1000 | 30 | 83 | 68 | 3 | –
5 | CC(C)n1c(Nc2cccc(Br)c2)nc2cnc(Nc3ccc(N4CCN(C)CC4)cc3)nc21 [Compounds 8-11] | 0.2 | 8.8 | 1730 | 0.2 | 58 | 140 | 77 | 98 | 67 | 33 | –
6 | CC(C)n1c(Nc2ccc(C(F)(F)F)cc2)nc2cnc(Nc3ccc(N4CCN(C)CC4)cc3)nc21 [Compounds 8-27] | 115 | 4190 | > 10000 | 82.3 | 68 | 9 | 74 | 98 | 83 | 30 | –
7 | COc1cc(C(=O)NN2CCN(C)CC2)ccc1Nc1ncc2nc(Nc3ccccc3)n(C(C)C)c2n1 [Compound 8-7, 3-methoxy-4-(9-isopropyl-8-phenylamino-9H-purin-2-ylamino)-N-(4-methylpiperazin-1-yl)benzamide] | – | – | – | – | – | – | – | – | – | – | IC50 ([1]; Homo sapiens): 12.1 nM; IC50 ([2]; Homo sapiens, NCI-H292, 72 hours): 138 nM; IC50 ([3]; Homo sapiens, NCI-H1975, 72 hours): > 10000 nM; IC50 ([4]; Homo sapiens, HCC827, 72 hours): 7.5 nM; inhibition at 10 µM (PDGFRα; read-out: The kinase activity inhibitory rate (%) by the tested compounds at 10 μM PDGFRα): 9%; IC50 (VEGFR2): > 1000 nM; inhibition at 10 µM (BTK; read-out: The kinase activity inhibitory rate (%) by the tested compounds at 10 μM BTK): 12%; inhibition at 10 µM (c-SRC; read-out: The kinase activity inhibitory rate (%) by the tested compounds at 10 μM c-SRC): 28%; inhibition at 10 µM (FLT3; read-out: The kinase activity inhibitory rate (%) by the tested compounds at 10 μM FLT3): 0%; inhibition at 10 µM (ALK; read-out: The kinase activity inhibitory rate (%) by the tested compounds at 10 μM ALK): 61%
